Experiment [1] is described as follows: (§1) Biochemical Assay: A variety of Ras proteins may be inhibited by compounds of the present invention (e.g., K-Ras, N-Ras, H-Ras, and mutants thereof at positions 12, 13 and 61, such as G12C, G12D, G12V, G12S, G13C, G13D, and Q61L, and others described herein). The purpose of this biochemical assay is to measure the ability of test compounds to covalently label nucleotide-loaded K-Ras isoforms. […] The sample is incubated at 25? C. for a time period of up to 24 hours prior to quenching by the addition of 10 uL of 5% Formic Acid. Quenched samples are centrifuged at 15000 rpm for 15 minutes in a benchtop centrifuge before injecting a 10 uL aliquot onto a reverse phase C4 column and eluting into the mass spectrometer with an increasing acetonitrile gradient in the mobile phase. Analysis of raw data may be carried out using Waters MassLynx MS software, with % bound calculated from the deconvoluted protein peaks for labeled and unlabeled K-Ras.

In experiment [2] the target is T1, GTPase KRas (Homo sapiens, UniProt P01116). Briefly: (§2) The purpose of this biochemical assay is to measure the ability of test compounds to covalently label nucleotide-loaded K-Ras isoforms. […] Analysis of raw data may be carried out using Waters MassLynx MS software, with % bound calculated from the deconvoluted protein peaks for labeled and unlabeled K-Ras.
Experiment [3] can be described thus: as §1. This is another data set of the same source.
The next experiment deals with GTPase NRas (Homo sapiens, UniProt P01111). The experiment is described as §1.
Experiment [4] in a line: as §1. The source holds these as a separate data set.
Experiment [5] is described as follows: as §1. This is another data set of the same source.
Experiment [6] has as its target T1, GTPase KRas. Described as §2. This is another data set of the same source.
Experiment [7] in a line: as §1. The source holds these as a separate data set.
Experiment [8] can be described thus: as §1. This is another data set of the same source.
The nature of experiment [9]: as §1. This is another data set of the same source.

Consider nine compounds from ChEMBL document CHEMBL5729568, “Ras inhibitors” (2023).

Molecules are shown by their SMILES.

As a reminder, the IC50 is the midpoint of a concentration-inhibition curve.

GTPase NRas, sequence (P01111 whole entry, looked up): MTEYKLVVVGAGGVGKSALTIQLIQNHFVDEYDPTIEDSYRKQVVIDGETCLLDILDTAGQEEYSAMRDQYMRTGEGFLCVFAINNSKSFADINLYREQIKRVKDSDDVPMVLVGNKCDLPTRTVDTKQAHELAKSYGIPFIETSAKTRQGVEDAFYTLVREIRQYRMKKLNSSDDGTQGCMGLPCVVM

For `CCn1c(-c2cccnc2C(C)OC)c2c3cc(ccc31)-c1cccc(c1)C[C@H](NC(=O)[C@H](C(C)C)N(C)C(=O)N1CCC13CN(C(=O)C#CC(C)(C)N(C)C)C3)C(=O)N1CCC[C@H](N1)C(=O)OCC(C)(C)C2` (stereo not given in full), the IC50 result in experiment [1] was “in the range around 550 nM”; at GTPase KRas [2] it was “in the range around 550 nM”; in experiment [3] it was “in the range around 550 nM”; at GTPase NRas, “in the range around 550 nM”; in experiment [4], “in the range around 550 nM”; in [5], “in the range around 55 nM”. For the same compound, the IC50 entry at GTPase KRas [6] was “in the range around 5500 nM”; in experiment [7], “in the range around 550 nM”; in experiment [8] it was “in the range around 55 nM”; in experiment [9], “in the range around 550 nM”.

For `CCn1c(-c2ccccc2CCOC)c2c3cc(ccc31)-c1cc(O)cc(c1)C[C@H](NC(=O)[C@H](C(C)C)N(C)C(=O)[C@H]1CCN(C(=O)C#CCN(C)C)C1)C(=O)N1CCC[C@H](N1)C(=O)OCC(C)(C)C2`, the IC50 result at GTPase KRas [2] was “in the range around 5500 nM”; in experiment [3] it was “in the range around 5500 nM”; at GTPase KRas [6], “in the range around 55 nM”; in experiment [7], “in the range around 550 nM”; in experiment [9], “in the range around 5500 nM”.

Consider `C=CC(=O)N1CC[C@H](C(=O)N(C)[C@H](C(=O)N[C@H]2Cc3cc(O)cc(c3)-c3ccc4c(c3)c(c(-c3cnccc3COC)n4CC)CC(C)(C)COC(=O)[C@@H]3CCCN(N3)C2=O)C(C)C)C1`, for which the IC50 entry at GTPase KRas [6] was “in the range around 55 nM”; in experiment [7] it was “in the range around 550 nM”.

With `C=CC(=O)N1CC[C@H](C(=O)N(C)[C@H](C(=O)N[C@H]2Cc3cc(O)cc(c3)-c3ccc4c(c3)c(c(-c3ccc5c(c3)CCN(C)C5)n4CC)CC(C)(C)COC(=O)[C@@H]3CCCN(N3)C2=O)C(C)C)C1`, the IC50 entry at GTPase KRas [6] is “in the range around 550 nM”; in experiment [9], “in the range around 5500 nM”.

Take `C=CC(=O)N1CC[C@H](C(=O)N(C)[C@H](C(=O)N[C@H]2Cc3cc(O)cc(c3)-c3ccc4c(c3)c(c(-c3ncccc3COC)n4CC)CC(C)(C)COC(=O)[C@@H]3CCCN(N3)C2=O)C(C)C)C1`: the IC50 entry (at GTPase KRas [6]; in [8]) was “in the range around 5500 nM” throughout.

Take `C=CC(=O)N1CC[C@H](C(=O)N(C)[C@H](C(=O)N[C@H]2Cc3cc(O)cc(c3)-c3ccc4c(c3)c(c(-c3cccnc3CN(C)C)n4CC)CC(C)(C)COC(=O)[C@@H]3CCCN(N3)C2=O)C(C)C)C1`: the IC50 entry on GTPase KRas [6] was “in the range around 550 nM”; in [9], “in the range around 5500 nM”.

`C=CC(=O)N1CC[C@H](C(=O)N(C)[C@H](C(=O)N[C@H]2Cc3cc(O)cc(c3)-c3ccc4c(c3)c(c(-c3nccnc3COC)n4CC)CC(C)(C)COC(=O)[C@@H]3CCCN(N3)C2=O)C(C)C)C1`: the IC50 entry (on GTPase KRas [6]; in [8]) was “in the range around 5500 nM” throughout.

Turning to `C=CC(=O)N1CCN(C(=O)N(C)[C@H](C(=O)N[C@H]2Cc3cc(O)cc(c3)-c3ccc4c(c3)c(c(-c3ccccc3CN(C)C)n4CC)CC(C)(C)COC(=O)[C@@H]3CCCN(N3)C2=O)C(C)C)CC1`, the IC50 result (at GTPase KRas [2]; in experiment [3]; in experiment [7]; in [9]) was “in the range around 550 nM” each time.

As to `CCn1c(-c2cccnc2COC)c2c3cc(ccc31)-c1cc(O)cc(c1)C[C@H](NC(=O)[C@H](C(C)C)N(C)C(=O)[C@H]1CCN(C(=O)C#CCN(C)C)C1)C(=O)N1CCC[C@H](N1)C(=O)OCC(C)(C)C2`, at GTPase KRas [2], the IC50 entry is “in the range around 550 nM”.
